From the supplement of paper PMC11208160

assay: recombinant UMI read abundance after kanamycin selection (control-corrected) (log10(CPM+1)); higher = more efficient recombination; extreme values may be limits of the assay; sequences stand for … in AGTGCAGAGAAAATCGGCCAGTTTTCTCTGCCTGCAGTCCGCATGCCGTGGGACCCCTTGGGTTCTAACCTGTTGCCTAGATTTATGCAGCGGACTGCCTTTCTCCCAAAGTGATAAACCGG…AGGTTGGTTTCACT; site = the 11-nt donor
In short: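 In Escherichia coli, a pool of donor and donor-binding-loop pairs, each with a 12-nt UMI, was tested for the IS621 bridge recombinase. Plating was on IPTG (0.07 mM) plus kanamycin, or without selection, in two replicates. Recombinant UMIs were amplified by PCR across the donor–target junction and sequenced, and counts were reported as log10(CPM+1) after averaging and control-derived scaling.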
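Note: IS621 bridge recombinase in Escherichia coli cells against a fixed T5 target plasmid.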

Sequence | recombinant UMI read abundance (log10)
AGAAAGACATGGACCGGTTTTCCCGGTAATCCGTATTTGCA (site AGCAAGACTTG) | 1.59
AGAAAGACATGGACCGGTTTTCCCGGTAATCCGTATTTGCA (site AGGAAGACTTG) | 0.932
AGAAAGACATGGACCGGTTTTCCCGGTAATCCGTATTTGCA (site AGTAAGACTTG) | 1.15
AGAAAGGCATGGACCGGTTTTCCCGGTAATCCGTATTTGAT (site AGAAAGGCTAA) | 0.418
AGAAAGGCATGGACCGGTTTTCCCGGTAATCCGTATTTGAT (site AGAAAGGCTAC) | 0
AGAAAGGCATGGACCGGTTTTCCCGGTAATCCGTATTTGAT (site AGAAAGGCTAG) | 0
AGAAAGGCATGGACCGGTTTTCCCGGTAATCCGTATTTGAT (site AGAAAGGCTAT) | 2.28
AGAACGCCATGGACCGGTTTTCCCGGTAATCCGTATTTGCC (site AGAACGCCTGG) | 0.968
AGAATGACATGGACCGGTTTTCCCGGTAATCCGTATTTGCA (site AGAATGACTTG) | 2.63
AGAATGACATGGACCGGTTTTCCCGGTAATCCGTATTTGCA (site AGGAAGACTTG) | 1.53
AGAATGTCATGGACCGGTTTTCCCGGTAATCCGTATTTGGG (site AGAATGTCTCC) | 2.01
AGAATTTCATGGACCGGTTTTCCCGGTAATCCGTATTTGGG (site AGAATTTCTCC) | 0.964
AGACAGCCATGGACCGGTTTTCCCGGTAATCCGTATTTGCA (site AGACAGCCTTG) | 1.21
AGACGCACATGGACCGGTTTTCCCGGTAATCCGTATTTGTT (site AGACGCACTAA) | 1.79
AGAGAAGCATGGACCGGTTTTCCCGGTAATCCGTATTTGCG (site AGAGAAGCTCG) | 3.09
AGAGATCCATGGACCGGTTTTCCCGGTAATCCGTATTTGAA (site AGAGATCCTTT) | 2.01
AGAGATTCATGGACCGGTTTTCCCGGTAATCCGTATTTGGC (site AGAGATTCTGC) | 2.95
AGAGCTTCATGGACCGGTTTTCCCGGTAATCCGTATTTGGG (site AGAGCTTCTCC) | 1.06
AGAGGAGCATGGACCGGTTTTCCCGGTAATCCGTATTTGGC (site AGAGGAGCTGC) | 1.01
AGAGGATCATGGACCGGTTTTCCCGGTAATCCGTATTTGCA (site ACAGTATCTTG) | 1.59
AGAGGATCATGGACCGGTTTTCCCGGTAATCCGTATTTGCA (site AGAGGATCTTG) | 2.04
AGAGGCACATGGACCGGTTTTCCCGGTAATCCGTATTTGAC (site AGAGGCACTGT) | 2.32
AGAGTGGCATGGACCGGTTTTCCCGGTAATCCGTATTTGCT (site AGAGTGGCTAG) | 2.62

Sequence | recombinant UMI read abundance (log10)
AGAGTGTCATGGACCGGTTTTCCCGGTAATCCGTATTTGCA (site ACAGTATCTTG) | 2.56
AGAGTGTCATGGACCGGTTTTCCCGGTAATCCGTATTTGCA (site AGAGTGTCTTG) | 3.45
AGATAATCATGGACCGGTTTTCCCGGTAATCCGTATTTGCT (site AGATAATCTAG) | 3.3
AGATCATCATGGACCGGTTTTCCCGGTAATCCGTATTTGCT (site AGATCATCTAG) | 1.56
AGATCATCATGGACCGGTTTTCCCGGTAATCCGTATTTGCT (site CGATCATCTAG) | 0.477
AGATCATCATGGACCGGTTTTCCCGGTAATCCGTATTTGCT (site GGATCATCTAG) | 0.911
AGATCATCATGGACCGGTTTTCCCGGTAATCCGTATTTGCT (site TGATCATCTAG) | 1.75
AGATGGGCATGGACCGGTTTTCCCGGTAATCCGTATTTGAG (site AGATGGGCTCT) | 1.06
AGATTAGCATGGACCGGTTTTCCCGGTAATCCGTATTTGAC (site AGATTAGCTGT) | 2.75
AGATTATCATGGACCGGTTTTCCCGGTAATCCGTATTTGGA (site AGATTATCTTC) | 1.9
AGATTCTCATGGACCGGTTTTCCCGGTAATCCGTATTTGTG (site AGATTCTCTCA) | 2.63
AGCAGAGCATGGACCGGTTTTCCCGGTAATCCGTATTTGAG (site AGCAGAGCTCT) | 2.54
AGCAGTACATGGACCGGTTTTCCCGGTAATCCGTATTTGAT (site AGCAGTACTAT) | 1.79
AGCATTGCATGGACCGGTTTTCCCGGTAATCCGTATTTGAA (site AGCATTGCTTT) | 2.4
AGCATTTCATGGACCGGTTTTCCCGGTAATCCGTATTTGAC (site AGCATTTCTGT) | 0.795
AGCATTTCATGGACCGGTTTTCCCGGTAATCCGTATTTGAC (site AGCCTTTCTGT) | 0
AGCATTTCATGGACCGGTTTTCCCGGTAATCCGTATTTGAC (site AGCGTTTCTGT) | 0
AGCATTTCATGGACCGGTTTTCCCGGTAATCCGTATTTGAC (site AGCTTTTCTGT) | 0.236
AGCCACCCATGGACCGGTTTTCCCGGTAATCCGTATTTGTT (site AGCCACCCTAA) | 0.0153
AGCCACCCATGGACCGGTTTTCCCGGTAATCCGTATTTGTT (site CGCCACCCTAA) | 0.026
AGCCACCCATGGACCGGTTTTCCCGGTAATCCGTATTTGTT (site GGCCACCCTAA) | 0
AGCCACCCATGGACCGGTTTTCCCGGTAATCCGTATTTGTT (site TGCCACCCTAA) | 0
AGCCAGACATGGACCGGTTTTCCCGGTAATCCGTATTTGCA (site AGCCAGACTTG) | 2.18

Sequence | recombinant UMI read abundance (log10)
AGCCAGACATGGACCGGTTTTCCCGGTAATCCGTATTTGCA (site AGGAAGACTTG) | 0
AGCCCAGCATGGACCGGTTTTCCCGGTAATCCGTATTTGTT (site AGCCAAGCTAA) | 0.0134
AGCCCAGCATGGACCGGTTTTCCCGGTAATCCGTATTTGTT (site AGCCCAGCTAA) | 0.602
AGCCCAGCATGGACCGGTTTTCCCGGTAATCCGTATTTGTT (site AGCCGAGCTAA) | 0.0227
AGCCCAGCATGGACCGGTTTTCCCGGTAATCCGTATTTGTT (site AGCCTAGCTAA) | 0.0205
AGCCCCGCATGGACCGGTTTTCCCGGTAATCCGTATTTGTT (site AGCCCCGCTAA) | 1.12
AGCCCGCCATGGACCGGTTTTCCCGGTAATCCGTATTTGGG (site AGCCCGCCTCC) | 0.00589
AGCCGGCCATGGACCGGTTTTCCCGGTAATCCGTATTTGAT (site AGCCGGCCTAT) | 0.00427
AGCCGTACATGGACCGGTTTTCCCGGTAATCCGTATTTGCT (site AGCCGTACTAG) | 1.74
AGCCGTACATGGACCGGTTTTCCCGGTAATCCGTATTTGCT (site CGCCGTACTAG) | 0.697
AGCCGTACATGGACCGGTTTTCCCGGTAATCCGTATTTGCT (site GGCCGTACTAG) | 0
AGCCGTACATGGACCGGTTTTCCCGGTAATCCGTATTTGCT (site TGCCGTACTAG) | 1.18
AGCCTAACATGGACCGGTTTTCCCGGTAATCCGTATTTGGG (site AGCCTAACTCC) | 0.0227
AGCCTAACATGGACCGGTTTTCCCGGTAATCCGTATTTGTT (site AGCCTAACTAA) | 0.00538
AGCCTAACATGGACCGGTTTTCCCGGTAATCCGTATTTGTT (site AGCCTACCTAA) | 0.024
AGCCTAACATGGACCGGTTTTCCCGGTAATCCGTATTTGTT (site AGCCTAGCTAA) | 0.0126
AGCCTAACATGGACCGGTTTTCCCGGTAATCCGTATTTGTT (site AGCCTATCTAA) | 0.00871
AGCCTAGCATGGACCGGTTTTCCCGGTAATCCGTATTTGTT (site AACCTAGCTAA) | 0.00661
AGCCTAGCATGGACCGGTTTTCCCGGTAATCCGTATTTGTT (site ACCCTAGCTAA) | 0.0311
AGCCTAGCATGGACCGGTTTTCCCGGTAATCCGTATTTGTT (site AGACTAGCTAA) | 0.00397
AGCCTAGCATGGACCGGTTTTCCCGGTAATCCGTATTTGTT (site AGCATAGCTAA) | 0.00842
AGCCTAGCATGGACCGGTTTTCCCGGTAATCCGTATTTGTT (site AGCCAAGCTAA) | 0.0196
